# Experiments:
# Leishmania donovani [1] = experiment: Antileishmanial activity against Leishmania donovani axenic amastigotes infected in mouse J774 cells after 72 hrs by Draq5 staining based assay; type: functional, organism-based; details: J774, 72 h
# J774.A1 = experiment: Cytotoxicity against mouse J774.A1 cells after 72 hrs by MTS assay; type: cell-based; details: J774.A1, 72 h
# Leishmania donovani [2] = experiment: Antileishmanial activity against Leishmania donovani axenic amastigotes after 72 hrs by CellTiter reagent based assay; type: functional, organism-based
# [3] = Kinetic solubility of the compound in pH 7.4 PBS buffer; type: physicochemical; details: read-out: Kinetic_solubility
IC50 (Leishmania donovani [1]),solubility kinetic [3],SMILES,IC50 (J774.A1),IC50 (Leishmania donovani [2])
880 nM,–,COCCCNc1cc(-n2nc(C)c3c2CC(C)(C)CC3=O)ccc1C(N)=O,3.52 µM,650 nM
1060 nM,> 490 µM,COCCCNc1cc(-n2nc(C)c3c2CN(C(C)=O)CC3=O)ccc1C(N)=O,> 50 µM,13900 nM
1750 nM,–,COCCCNc1cc(-n2nc(C)c3c2CN(C(=O)c2ccc(C)cc2)CC3=O)ccc1C(N)=O,26.3 µM,2600 nM
6330 nM,–,COCCCNc1cc(-n2nc(C)c3c2CN(Cc2ccccc2)CC3=O)ccc1C(N)=O,> 50 µM,2290 nM
> 10000 nM,–,COCCCNc1cc(-n2nc(C)c3c2CCCC3=O)ccc1C(N)=O,> 50 µM,> 25000 nM
3540 nM,–,COCCCNc1cc(-n2nc(C)c3c2CN(C(=O)C(C)C)CC3=O)ccc1C(N)=O,37.3 µM,1900 nM
1430 nM,–,CCCCCCCCCCCCCCCCOP(=O)([O-])OCC[N+](C)(C)C [MILTEFOSINE],> 50 µM,3260 nM
1520 nM,–,COCCCNc1cc(-n2nc(C)c3c2CN(C(=O)C2CCCC2)CC3=O)ccc1C(N)=O,> 50 µM,2990 nM
610 nM,–,CC1(C)CC(=O)c2c(C(F)(F)F)nn(-c3ccc(C(N)=O)c(N[C@H]4CC[C@H](O)CC4)c3)c2C1 [SNX-2112],< 0.06 µM,420 nM
3540 nM,–,CCC(=O)N1CC(=O)c2c(C)nn(-c3ccc(C(N)=O)c(NCCCOC)c3)c2C1,> 50 µM,6430 nM
5380 nM,–,COCCCNc1cc(-n2nc(C)c3c2CN(S(C)(=O)=O)CC3=O)ccc1C(N)=O,25.5 µM,> 20000 nM
> 10000 nM,–,COCCCNc1cc(-n2nc(C)c3c2CN(C(N)=O)CC3=O)ccc1C(N)=O,> 50 µM,> 20000 nM
> 10000 nM,–,COCCCNc1cc(-n2nc(C)c3c2CN(C(=O)NCc2ccccc2)CC3=O)ccc1C(N)=O,> 50 µM,> 20000 nM
> 10000 nM,–,COCCCNc1cc(-n2nc(C)c3c2CNCC3=O)ccc1C(N)=O,> 50 µM,3900 nM
1330 nM,–,Cc1nn(-c2ccc3c(N)ncnc3c2)c2c1C(=O)CC(C)(C)C2,> 50 µM,2420 nM
3580 nM,–,COCCCNc1cc(-n2nc(C)c3c2CN(C(=O)COC)CC3=O)ccc1C(N)=O,> 50 µM,4480 nM

SMILES,IC50 (Leishmania donovani [1]),solubility kinetic [3],IC50 (J774.A1),IC50 (Leishmania donovani [2])
C[C@@H]1C[C@H]2O[C@@H]2/C=C\C=C\C(=O)Cc2c(Cl)c(O)cc(O)c2C(=O)O1 [RADICICOL],290 nM,–,2.35 µM,620 nM
